Test results taken from ChEMBL document CHEMBL1201862, “PubChem BioAssay data set” (2004).
The source made the active and inactive calls.

Assays:
[1] = biological target: T1, Eukaryotic translation initiation factor 2-alpha kinase 3 (Homo sapiens, UniProt Q9NZJ5); test: Counterscreen assay for PERK inhibitors: Dose response cell-based high throughput screening assay to measure inhibition of PERK at 6 hours. [Related pubchem assays: 1522, 1416 ]; assay type: functional
T1 sequence (Q9NZJ5 whole entry): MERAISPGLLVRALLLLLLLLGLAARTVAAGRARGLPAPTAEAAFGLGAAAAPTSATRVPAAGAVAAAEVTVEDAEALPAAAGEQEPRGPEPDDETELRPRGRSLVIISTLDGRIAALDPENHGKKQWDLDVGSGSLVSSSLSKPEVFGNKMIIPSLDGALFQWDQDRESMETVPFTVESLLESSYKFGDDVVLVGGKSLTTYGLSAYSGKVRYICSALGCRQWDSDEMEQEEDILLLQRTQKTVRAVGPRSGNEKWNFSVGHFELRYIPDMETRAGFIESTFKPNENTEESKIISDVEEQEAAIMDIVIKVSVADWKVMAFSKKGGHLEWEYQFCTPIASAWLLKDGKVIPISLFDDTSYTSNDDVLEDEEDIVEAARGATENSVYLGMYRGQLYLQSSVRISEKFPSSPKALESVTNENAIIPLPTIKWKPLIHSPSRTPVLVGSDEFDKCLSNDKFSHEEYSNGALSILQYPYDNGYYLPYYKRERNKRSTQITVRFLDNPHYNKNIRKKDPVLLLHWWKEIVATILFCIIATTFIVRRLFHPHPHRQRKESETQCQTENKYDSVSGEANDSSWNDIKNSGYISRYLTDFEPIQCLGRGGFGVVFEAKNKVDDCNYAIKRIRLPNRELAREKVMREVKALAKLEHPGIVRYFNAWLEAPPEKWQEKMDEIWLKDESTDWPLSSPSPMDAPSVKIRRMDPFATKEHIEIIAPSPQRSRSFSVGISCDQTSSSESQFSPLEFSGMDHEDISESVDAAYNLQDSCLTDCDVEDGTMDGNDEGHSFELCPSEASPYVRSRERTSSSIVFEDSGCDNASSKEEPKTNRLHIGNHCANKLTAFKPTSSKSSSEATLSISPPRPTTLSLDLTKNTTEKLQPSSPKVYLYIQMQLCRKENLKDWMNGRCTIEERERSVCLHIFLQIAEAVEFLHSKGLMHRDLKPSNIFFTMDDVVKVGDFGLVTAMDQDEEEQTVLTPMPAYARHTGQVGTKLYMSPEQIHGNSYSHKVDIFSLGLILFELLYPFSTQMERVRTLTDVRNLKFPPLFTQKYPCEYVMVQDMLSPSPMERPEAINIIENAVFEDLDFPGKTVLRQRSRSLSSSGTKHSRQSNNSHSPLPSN

[2] = biological target: T1, Eukaryotic translation initiation factor 2-alpha kinase 3; test: Dose response cell-based high-throughput screening assay to measure PERK inhibition. [Related pubchem assays: 1416 ]; assay type: functional
[3] = biological target: Cyclin-dependent kinase 5/CDK5 activator 1 (Homo sapiens, UniProt Q00535); test: CDK5/p35 kinase inhibitors, dose response, biochemical, cherry-picked samples, set 2 (AID 504545)
[4] = control 3'UTR Renilla luciferase suppression, dose response, counter-screen for Shn3 inhibitor project, cell-based, Clone20-Shn3RL, cherry-picked (AID 624133); assay type: functional
[5] = HepG2 cell cytotoxicity, dose response, cytotoxicity control for Shn3 inhibitor project, CellTiter-Glo, cherry-picked (AID 624134); assay type: functional, cell-based
[6] = Shn3 3'UTR reporter inhibitors, dose response, cell-based, Clone20 osteoblasts, firefly luciferase, cherry-picked (AID 624132); assay type: functional;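 also: firefly luciferase luminescence from reporter carrying the Shn3 3'UTR in osteoblasts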
[7] = biological target: Dual specificity tyrosine-phosphorylation-regulated kinase 1A (Rattus norvegicus, UniProt Q63470); assay type: biochemical, Homo sapiens
[8] = inhibitors of SNCA 5'UTR-driven reporter translation, confirmation, H4 neuroglioma cells, luminescence (AID 1988); assay type: functional, cell-based
[9] = Vero E6 cell cytotoxicity, dose response, cytotoxicity control for non-replicating M. tuberculosis project, secondary assay (AID 492998); assay type: functional, VeroE6; conditions: Vero C1008
[10] = HepG2 cell cytotoxicity, dose response, cytotoxicity control for non-replicating M. tuberculosis project (AID 489018); assay type: functional; conditions: Mycobacterium tuberculosis
[11] = inhibitors of firefly luciferase expression or activity, dose response, H4 neuroglioma cells, luminescence (AID 1990); assay type: functional, cell-based
[12] = THP-1 cell cytotoxicity, dose response, cytotoxicity control for non-replicating M. tuberculosis project (AID 489025); assay type: functional
[13] = microbe, parasite or virus in culture; assay type: functional; conditions: Mycobacterium tuberculosis
[14] = Luminescence Cell-Based Dose Response HTS to Identify Inhibitors of 5'UTR Stem-Loop Driven Prion Protein mRNA Translation in H4 Neuroglioblastoma Cells. [Related pubchem assays: 1827 (Project Summary), 1813 (Primary HTS)]; assay type: functional
cells = assay type: functional
Vero = test: cells; assay type: functional; conditions: Chlorocebus sabaeus
X-box-binding protein 1 = X-box-binding protein 1 (Homo sapiens, UniProt P17861); assay type: functional, Cricetulus griseus;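 also: confirmatory dose-response counter-screen serving a CHOP assay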
[15] = biological target: Glyceraldehyde-3-phosphate dehydrogenase (Homo sapiens, UniProt P04406)
[16] = biological target: T2, Alkaline phosphatase, tissue-nonspecific isozyme (Homo sapiens, UniProt P05186); test: human TNAP enzyme inhibitors, SAR follow-up, biochemical, luminescent, dose response (AID 1056)
T2 sequence (P05186 whole entry): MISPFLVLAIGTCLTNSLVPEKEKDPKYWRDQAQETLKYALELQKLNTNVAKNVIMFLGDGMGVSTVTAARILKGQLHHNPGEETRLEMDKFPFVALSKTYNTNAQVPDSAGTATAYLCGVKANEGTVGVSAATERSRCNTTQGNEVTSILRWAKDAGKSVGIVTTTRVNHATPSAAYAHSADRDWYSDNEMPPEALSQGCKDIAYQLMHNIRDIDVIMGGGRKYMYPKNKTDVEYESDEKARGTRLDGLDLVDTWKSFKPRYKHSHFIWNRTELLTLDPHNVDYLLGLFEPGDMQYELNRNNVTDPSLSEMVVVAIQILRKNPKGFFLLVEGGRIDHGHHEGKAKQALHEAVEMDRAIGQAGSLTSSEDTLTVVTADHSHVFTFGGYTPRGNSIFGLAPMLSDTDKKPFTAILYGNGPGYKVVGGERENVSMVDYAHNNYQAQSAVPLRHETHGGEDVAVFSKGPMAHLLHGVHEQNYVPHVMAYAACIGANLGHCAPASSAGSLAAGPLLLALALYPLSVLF

[17] = Luminescence Cell-Based Dose Retest to Confirm Inhibitors of Cancer Stem Cells. [Related pubchem assays (depositor defined):AID2717, AID2721]; assay type: functional; conditions: Homo sapiens
INS1 = test: beta cell apoptosis inhibitors, cytokine rescue, dose response, luminescence, retest (AID 449756); assay type: functional, cell-based; conditions: Rattus norvegicus;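 also: cell death triggered by IL-1 beta plus TNF-alpha plus IFN-gamma mixture; protective hits raise ATP signal compared with cytokine alone wells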
BJ [18] = test: cells; assay type: functional, cell-based; conditions: Homo sapiens
[19] = biological target: T3, Hepatocyte nuclear factor 4-alpha (Homo sapiens, UniProt P41235); assay type: functional, cell-based;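 also: biochemical luminescence-based dose-response counterscreen measuring inhibition of HNF4 dimerization, run alongside a screen for blockers of ABHD5–perilipin-5 interaction; split luciferase complementation of HNF4 fusion proteins in cell lysate measuring dimerization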
T3 sequence (P41235 whole entry): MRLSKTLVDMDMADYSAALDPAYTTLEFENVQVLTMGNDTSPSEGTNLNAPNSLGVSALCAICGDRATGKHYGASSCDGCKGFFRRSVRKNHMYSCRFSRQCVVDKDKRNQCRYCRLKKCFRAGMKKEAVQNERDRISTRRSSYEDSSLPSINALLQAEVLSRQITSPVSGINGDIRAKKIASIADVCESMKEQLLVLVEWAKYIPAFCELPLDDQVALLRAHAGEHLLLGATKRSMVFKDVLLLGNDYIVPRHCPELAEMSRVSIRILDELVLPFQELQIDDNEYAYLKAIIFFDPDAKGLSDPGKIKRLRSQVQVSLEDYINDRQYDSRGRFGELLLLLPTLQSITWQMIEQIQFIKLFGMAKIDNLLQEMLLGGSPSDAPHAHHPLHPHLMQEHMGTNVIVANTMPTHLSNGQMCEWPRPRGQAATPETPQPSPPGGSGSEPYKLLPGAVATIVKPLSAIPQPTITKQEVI

Cytochrome P450 2C9 = Cytochrome P450 2C9 (Homo sapiens, UniProt P11712)
[20] = growth suppression of PTEN-null colon cells, dose response, cell-based, HCT116 PTEN knockout (AID 1047); assay type: functional;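 also: HCT116 colon tumor cells with PTEN knocked out; cells exposed to compound for 60 hours before readout; potency for loss of cell viability measured by luminescence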
[21] = cytotoxicity toward DRD oncogenic fibroblasts, dose response, cell-based, non-viral oncogenic, luminescence (AID 1934); assay type: functional; conditions: Homo sapiens
BJ [22] = test: cytotoxicity toward BJ-TERT-LT-ST fibroblasts, dose response, cell-based, RAS-independent, luminescence (AID 1935); assay type: functional; conditions: Homo sapiens;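 also: BJ fibroblasts immortalized with TERT plus LT and ST oncogenes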
HeLa = test: HeLa cell cytotoxicity, dose response, cytotoxicity control, 24 h, cherry-picked samples (AID 504726); assay type: functional, cell-based; conditions: Homo sapiens;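 also: potency for cytotoxicity as loss of luminescence signal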
[23] = growth suppression of beta-catenin-knockout colon cells, dose response, cell-based, HCT116, human colon tumor (AID 1045); assay type: functional;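 also: HCT116 colon tumor cells with beta catenin knocked out; cells exposed to compound for 60 hours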
[24] = inhibitors of PGC1a acetylation in cells, dose response, cell-based, cherry-picked samples (AID 720514); assay type: functional;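 also: potency may reflect raised or lowered acetylation signal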
BJ [25] = test: cytotoxicity toward BJ-TERT fibroblasts, dose response, cell-based, RAS-independent, luminescence (AID 1933); assay type: functional; conditions: Homo sapiens

Chain of Glyceraldehyde-3-phosphate dehydrogenase (P04406 whole entry): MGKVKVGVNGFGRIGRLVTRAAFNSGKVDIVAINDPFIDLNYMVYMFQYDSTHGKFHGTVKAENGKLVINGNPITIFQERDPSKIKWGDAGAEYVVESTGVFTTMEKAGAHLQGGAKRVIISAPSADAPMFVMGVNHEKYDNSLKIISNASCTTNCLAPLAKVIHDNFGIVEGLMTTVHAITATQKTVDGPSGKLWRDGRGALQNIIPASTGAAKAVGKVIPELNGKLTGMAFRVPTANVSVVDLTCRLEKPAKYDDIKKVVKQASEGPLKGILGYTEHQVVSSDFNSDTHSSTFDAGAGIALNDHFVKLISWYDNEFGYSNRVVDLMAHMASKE
Chain of X-box-binding protein 1 (P17861 whole entry): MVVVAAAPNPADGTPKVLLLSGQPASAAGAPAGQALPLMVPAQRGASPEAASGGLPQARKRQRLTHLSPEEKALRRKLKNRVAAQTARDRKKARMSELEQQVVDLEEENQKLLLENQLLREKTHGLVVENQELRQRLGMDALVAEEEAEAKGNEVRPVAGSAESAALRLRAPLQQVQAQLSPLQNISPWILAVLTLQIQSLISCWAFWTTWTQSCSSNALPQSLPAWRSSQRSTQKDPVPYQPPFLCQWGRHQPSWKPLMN
Chain of Cyclin-dependent kinase 5/CDK5 activator 1 (Q00535 whole entry): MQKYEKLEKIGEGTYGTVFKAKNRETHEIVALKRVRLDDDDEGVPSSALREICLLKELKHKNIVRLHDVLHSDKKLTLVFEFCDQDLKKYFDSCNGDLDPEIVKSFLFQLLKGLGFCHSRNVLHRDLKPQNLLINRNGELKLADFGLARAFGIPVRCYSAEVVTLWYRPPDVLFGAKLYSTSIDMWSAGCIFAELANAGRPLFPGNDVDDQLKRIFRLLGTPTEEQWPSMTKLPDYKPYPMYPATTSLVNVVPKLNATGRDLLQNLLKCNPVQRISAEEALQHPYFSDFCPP
Chain of Cyclin-dependent kinase 5/CDK5 activator 1 (Q15078 whole entry, further chain): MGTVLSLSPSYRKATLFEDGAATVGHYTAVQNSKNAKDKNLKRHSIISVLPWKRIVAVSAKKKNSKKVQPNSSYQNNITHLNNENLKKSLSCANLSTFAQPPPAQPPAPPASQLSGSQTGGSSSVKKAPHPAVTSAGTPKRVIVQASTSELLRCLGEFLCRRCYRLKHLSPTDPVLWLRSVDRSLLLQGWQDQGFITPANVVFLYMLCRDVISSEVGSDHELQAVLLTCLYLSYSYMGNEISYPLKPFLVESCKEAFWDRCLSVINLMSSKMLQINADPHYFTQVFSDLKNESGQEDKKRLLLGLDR
Chain of Cytochrome P450 2C9 (P11712 whole entry): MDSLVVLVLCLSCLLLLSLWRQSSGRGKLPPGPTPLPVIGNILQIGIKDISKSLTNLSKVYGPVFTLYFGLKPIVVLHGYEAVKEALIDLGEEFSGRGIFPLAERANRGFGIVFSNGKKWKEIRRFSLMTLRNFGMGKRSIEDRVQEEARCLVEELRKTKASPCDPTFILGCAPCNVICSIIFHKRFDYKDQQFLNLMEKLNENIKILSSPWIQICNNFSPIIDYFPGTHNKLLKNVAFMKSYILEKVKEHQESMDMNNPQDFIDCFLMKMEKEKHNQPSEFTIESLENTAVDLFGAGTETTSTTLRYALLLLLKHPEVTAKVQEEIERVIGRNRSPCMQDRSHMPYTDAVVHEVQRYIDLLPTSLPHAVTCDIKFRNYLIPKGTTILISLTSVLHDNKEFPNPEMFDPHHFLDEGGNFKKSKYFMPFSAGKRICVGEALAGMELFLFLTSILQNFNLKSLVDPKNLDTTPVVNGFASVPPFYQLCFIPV

With `O=C(O)c1ccc(C[S+]([O-])c2cccc(C(F)(F)F)c2)o1` (configuration not stated) the EC50 [1] was > 55.7 µM (not active) and the EC50 [2] was > 55.7 µM (not active).

For `CCOC(=O)c1c(C)noc1-c1ccc(Br)o1`, the EC50 [1] was > 55.7 µM (not active) and the EC50 [2] was > 55.7 µM (not active).

For `Cc1[nH]nc2c1-c1nc3ccccc3nc1C(C)(C)C2`, the AC50 [3] was 14.7 µM (active), the AC50 [4] was 9.03 µM (active) and the AC50 [5] was 24.4 µM (active). The AC50 [6] was 4.2 µM (active) and the AC50 [7] was 2.38 µM (active).

With `CCCCCC(=O)N/N=C(\C)c1ccccn1` the EC50 [8] was 5.13 µM (active), the CC50 [9] was 13.3 µM (active) and the CC50 [10] was > 20 µM (active). The EC50 [11] was 12.5 µM (active), the CC50 [12] was 11.1 µM (active) and the CC50 [13] was 21.4 µM (active). For the same molecule, the EC50 [14] was 7.26 µM (active) and the IC50 (cells) was 10.3 µM (active).

In the case of `COc1cc(OC)c(OC)cc1/C=N/Nc1[nH]cnc2c3ccccc3nc1-2`, the CC50 (Vero) is reported as > 25 µM (active) and the “Absolute IC50 (XBP1)” value (X-box-binding protein 1) is reported as 10 µM.

With `O=C(O)c1cc(-c2ccc(Cl)cc2)n[nH]1` the IC50 [15] was > 100 µM (not active) and the IC50 [16] was 6.14 µM (active).

With `FC(F)(F)c1nnc(-c2ccccc2)nc1Sc1ccc(Cl)cc1` the AC50 [17] was 4 µM (active), the AC50 [4] was 21 µM (active) and the AC50 [5] was 31.4 µM (active). The AC50 (INS1) was 9.75 µM (active), the AC50 [6] was 14.7 µM (active) and the “Absolute IC50 (XBP1)” value (X-box-binding protein 1) was 10 µM.

With `Cc1nc(-c2ccc(C(F)(F)F)cc2)sc1C(=O)NN` the CC50 [10] was > 20 µM (active), the CC50 [12] was 20.7 µM (active) and the IC50 (cells) was 35.9 µM (active).

In the case of `CCC(=O)Nc1cccc(C(=O)/C=C/c2ccccc2)c1`, the EC50 (BJ [18]) is reported as 26 µM (active), the IC50 [19] is reported as 2.86 µM (active) and the AC50 (Cytochrome P450 2C9) is reported as “inconclusive”. The EC50 [20] was 2.4 µM (active), the EC50 [21] was 11.2 µM (active) and the EC50 (BJ [22]) was 20.9 µM (inconclusive). For the same molecule, the AC50 (HeLa) was 23.6 µM (active), the EC50 [23] was 2.34 µM (active) and the AC50 [24] was 14.2 µM (active). The EC50 (BJ [25]) was 9.74 µM (inconclusive).

With `COc1cc(Cl)ccc1S(=O)(=O)Nc1ccc2ccccc2c1` the IC50 [15] was > 100 µM (not active) and the IC50 [16] was > 100 µM (inactive).
